We go through one molecule from patent US12329753B2, “Phosphodiesterase inhibitor treatment” (Cyrano Therapeutics, Inc., priority 2008, dated 2025).

Holding throughout (format): in vivo, human
Test [1] relates to patients with hyposmia. Description: Pilot study of intranasal theophylline, subjective taste and smell response.
Source text: Ten patients with hyposmia were selected from among 400 patients with hyposmia to participate in a pilot study to determine safety and efficacy of intranasal theophylline for the treatment of hyposmia. […] Selection for inclusion in the intranasal study was based upon several criteria. 1) non-response to oral theophylline; 2) severe side effects with oral theophylline that prevented reaching a dose of sufficient strength to restore smell function; and/or 3) preference for intranasal medication over oral medication.
Subjective responses to treatment were obtained independent of any interaction with the clinical staff by using a scale of 0-100 to measure response of taste function and smell function to treatment with 0 indicating no response, 100 indicating return to normal function and intermediate numbers indicating an intermediate response.
The patients inserted a plastic syringe containing 0.4 ml of fluid (20 μg theophylline) into each naris once a day. […] The drug dose was delivered through a plastic nipple which fitted snugly onto the filled syringe which was attached directly to the nipple. One nipple was supplied for each set of two syringes in each application kit. The patient fitted the nipple on one syringe, placed the nipple securely into the lower naris and injected the contents of the syringe directly into the lower vault of one naris accompanied by a modest inhalation. […]
The test system of test [2] is patients with hyposmia. Description: Subjective overall smell function response to oral theophylline. The protocol:
Independently, patients were also required to grade their ability to smell daily on a scale from 0-100, with 0 reflecting no overall smell function over a 24 hour period, 100 reflecting normal overall smell function over this period and numbers between 0-100 reflecting their estimation of their overall ability to smell odors over this period.
After determination of hyposmia, patients were treated in an open label, fixed design, controlled open trial. Patients were given an oral extended release theophylline in divided daily doses taken in the middle of breakfast and lunch. All patients were initially given 200 mg of theophylline; changes in this dose were made based upon subjective responses to therapy. If at a subsequent return visit, patients reported ≥5% subjective improvement in overall smell function, they continued on this same dose of theophylline and were reevaluated after four to six months of continued treatment. Results from any subsequent return from these improved patients were not included in any subsequent data report. All subsequent comparisons between treated and untreated patients were made only between those patients continuing in the study compared to their own measurements obtained in the untreated state. If patients reported <5% subjective improvement, their theophylline dose was increased by 200 mg daily and they were scheduled for retesting at the study site after two to four months at this new dosage. For patients that reported <5% improvement, this sequence continued until patients reached 800 mg of theophylline, at which time the study was considered completed.
Patients returned for reevaluation after two to four months of treatment. Measurements of blood serum theophylline were measured by a fluorescence polarization assay (Abbott, Chicago, IL). At this time, subjective changes in smell function were measured independently (compared to patient's memory of previous normal smell function monitored by use of the patients' daily measurements) using the scale from −100-0-+100 previously described (vs). After independently recording their subjective responses, smell function was measured for all four odors with DT, RT, ME and H determined without recourse to prior measurements.
Subjective overall changes in smell acuity were reported by telephone and by FAX or email at two-four month intervals after treatment was initiated using the standardized form in which they measured daily changes in smell acuity using the −100-0-+100 scale as noted above (vs). Using the same criteria noted above, if at their initial two-four month call-in they reported improvement in smell acuity of ≥5%, they continued at 200 mg and returned to the study site at four-six months on this treatment dose. If they reported improvement in smell acuity of <5% their dose of theophylline was increased to 400 mg for an additional two-four months and they then called the study site at the end of this period.

The subject of another test is Hyposmic patients. Description: Open label trial of inhalable PDE inhibitor in hyposmic patients (Examples 3, 4). The settings on record: nasal administration, not more than 500 μg. The protocol:
Hyposmic patients for whom the etiology of smell loss is not associated with head injury or allergic rhinitis are enrolled in an open label trial of inhalable theophylline. Patients are started at an initial dose of not more than 500 μg formulated as a liquid spray or dry powder to be delivered as a metered dose. Initially only local patients are enrolled so that quicker dose titration is achieved. Groups of 5 patients are started on not more than 500 μg of theophylline and continued for 1 month.
Patients are tested for improvement in smell acuity using the standard forced choice technique using four odors as described in Example 1. Additionally, subjective measurements of smell function are obtained using a scale from 0-100 as described in Example 1. Blood samples are also drawn to ascertain blood theophylline level to gauge its relationship to the expected recovery of smell.
Hyposmic patients for whom the etiology of smell loss is not associated with head injury or allergic rhinitis are enrolled in an open label trial of an inhalable PDE1 inhibitor. […]

`Cn1c(=O)c2[nH]cnc2n(C)c1=O` [theophylline]: in the test on patients with hyposmia [1] (intranasal 20 μg per naris once a day, 4 weeks, six of eight patients), the “subjective improvement in both taste and smell function over prior results with oral theophylline” value was 10-20%. In addition, the “further loss of smell while in the study” value in the test with patients with hyposmia [1] (intranasal 20 μg per naris, after stopping oral theophylline) was “No patient exhibited a further of loss of smell”. Also, the “patients improved ≥5% (subjective)” value amounted to 17.1% in the test with patients with hyposmia [2] (oral 200 mg daily, 34 of 199 returning patients); 29.2% in the test on patients with hyposmia [2] (oral 400 mg daily, 35 of 120 patients); 41.2% in the test with patients with hyposmia [2] (oral 600 mg daily, 66 of 160 patients); 53.6% in the test with patients with hyposmia [2] (oral 800 mg daily, 15 of 28 patients). The “improved patients who considered smell function returned to normal” value is given as 26.5% in the test on patients with hyposmia [2] (oral 200 mg daily, nine of the 34 improved) and 8.6% in the test on patients with hyposmia [2] (oral 400 mg daily, three of the 35 improved). In addition, the “patients reporting return to normal” value in the test with patients with hyposmia [2] (oral 200 mg, one of the improved non-returning patients) is 14.3%. Further, the “patients reporting >5% improvement” value with patients with hyposmia [2] (oral 200 mg, seven of the 15 non-returning patients) came out at 46.7%. Further, the “patients who considered smell function returned to normal” value in the test with patients with hyposmia [2] (oral 600 mg daily, 17 of 160 patients) was 10.6%; in the test on patients with hyposmia [2] (oral 800 mg daily, three patients), 33%. The “improved patients reporting return to normal” value is recorded as 60% in the test on patients with hyposmia [2] (oral 200-600 mg, Type III hyposmia, 3 of 5); 15.6% with patients with hyposmia [2] (oral 200-800 mg, Type I hyposmia, 5 of 32); 20.2% in the test with patients with hyposmia [2] (oral 200-800 mg, Type II hyposmia, 26 of 129). Besides, the “time course of subjective response” value with patients with hyposmia [2] (oral theophylline) is “little or no improvement before four-six weeks of treatment”. For the same molecule, the “responsive patients who considered smell function returned to normal” value in the test on patients with hyposmia [2] (whole study, 34 of 157) is 21.7%. For the same molecule, in the test with Hyposmic patients, the “recovery of smell acuity versus oral administration” value is recorded as “at least an equivalent recovery of smell acuity”.
